Results taken from patent publication EP1501797B1, “3-(SUBSTITUTED AMINO)-1H-INDOLE-2-CARBOXYLIC ACID ESTER AND 3-(SUBSTITUTED AMINO)-BENZO[B]THIOPHENE-2-CARBOXYLIC ACID ESTER DERIVATIVES AS INTERLEUKIN-4 GENE EXPRESSION INHIBITORS” (Aventis Pharmaceuticals Inc., priority 2002, dated 2003).

System: IL-5
Assay: Human primary Th2 cells, anti-CD3/anti-CD28 activated, IL-5 ELISA
Type: cell-based
Description: Briefly, CD4^+CD45RA^+ T cells, isolated from donor peripheral blood mononuclear cells of healthy donors, are educated in the presence of anti-CD3/CD28 antibodies and various growth factors to obtain either a Thl-like or Th2-like phenotypes as determined by the known cytokine profiles of these two cell types.
Peripheral blood mononuclear cells (PBMC) are prepared from human blood by Ficoll-Hypacque (Pharmacia). The cells are washed two times in Hanks balanced salt solution (HBSS) and counted.
Naive T cells (CD4^+/CD45RA ) are prepared by negative selection method using following antibodies and Dynabeads: anti-CD8, anti-HLA-DR, (where HLA means human leucocyte antigen) anti-CD14, anti-CD16, anti-CD19, anti-CD45RO antibodies (all from R&D Systems, 1-2 µg/ml) are added to the cells, and the cells are kept on ice for 30 min. The cells are washed two times in HBSS, and goat anti- mouse Ig-beads, (bead:target ratio, 5:1) are added. The cells and beads are slowly rotated at 4°C for 20 min. (following the protocol supplied from Dynal). The supernatant is removed and fresh goat anti-mouse Ig-beads are added to the supernatant, which is slowly rotated at 4°C for 20 min. The cells are counted and phenotypically characterized by flow cytometric analysis.
CD4^+/CD45RA^+ cells at a density of 10^6/ml in RPMI, is prepared and added to RPMI medium containing 10% Hyclone serum/ glutamine and 1-2 µg/ml anti-CD28 Ab. The cells are split in two aliquots. For Th1 cells: anti-IL-4 Ab (1-2 µg/ml), IFN-γ (1 µg/ml, or 5000 units/ml) are added to the wells. For Th2 cells: IL-4 (100-200 ng/ml), anti-IFN-γ neutralizing Ab (1-2 µg/ml), anti-IL-12 neutralizing Ab (1-2 µg/ml) are added into the wells. […] The cells are transferred to fresh wells and grown in 200 units/ml IL-2 for 2 weeks by feeding them every other day with IL-2 containing medium and splitting the cultures 1:2 or 1:3 as needed. The degree of polarization is determined by intracellular staining of cells with anti-IFN-γ and anti-IL-4 antibodies from Pharmingen, and using flow cytometry from Becton Dickinson (BD), according to manufacturers description. The cells are stimulated with PHA and alloantigens at day 14 and 28 as described below. Eight days after the second allostimulation the cells can be used for compound screening or frozen for future use. For compound testing, large quantities of Th1 and Th2 cells derived from a given donor (NYTh1 and NYTh2) were expanded and frozen as aliquots in liquid nitrogen. The cells are thawed and cultured as and when needed. The thawed cells are stimulated with alloantigen/PHA combination. The cells are used for compound screening after 8-10 days in culture.
Re-stimulation by allogeneic cells: Human PBMCs, to be used as alloantigens, are isolated from freshly drawn blood by Ficoll separation. […] Cells are counted and diluted to a final concentration of 2 x 10^6/ml in medium containing 10 µg/ml PHA and 200 units/ml IL-2.
Ninetysix well Falcon tissue culture plates (Fisher Scientific) are coated with 100 microliters per well of 10 µg/ml anti-CD3 (PharMingen) antibody in phosphate buffered saline (PBS) and stored at 4°C one day before the experiment.
On the day of assay, anti-CD3 antibody coated plates are washed with PBS once to remove all soluble anti-CD3 antibody. […] All compounds and controls are assayed in triplicates.

In the case of `O=C(O)c1[nH]c2ccccc2c1Nc1ccncc1` [Example 28, 3-(4-Pyridinylamino)-1H-indole-2-carboxylic acid], the activity at 0.01 µM (Homo sapiens, 0.01 µM, 48 hr, read-out: IL-5 (% control) mean) is reported as 102%, the activity at 0.03 µM (Homo sapiens, 0.03 µM, 48 hr, read-out: IL-5 (% control) mean) is reported as 85.2% and the activity at 0.1 µM (Homo sapiens, 0.1 µM, 48 hr, read-out: IL-5 (% control) mean) is reported as 78.6%. The activity at 0.3 µM (Homo sapiens, 0.3 µM, 48 hr, read-out: IL-5 (% control) mean) was 70.8%, the activity at 1 µM (Homo sapiens, 1 µM, 48 hr, read-out: IL-5 (% control) mean) was 70.7% and the activity at 3 µM (Homo sapiens, 3 µM, 48 hr, read-out: IL-5 (% control) mean) was 70.4%. The activity at 10 µM (Homo sapiens, 10 µM, 48 hr, read-out: IL-5 (% control) mean) was 53.9% and the IC50 (Human primary Th2 cells, combined data from 10 different experiments) was ~10 µM.
